Measured values: ChEMBL document CHEMBL5465560, “Selectivity Literature for EUbOPEN Chemogenomic Library” (2024)
Each block holds one compound with its values, some of them ahead of it.

What was measured:
[1] = target: Fibroblast growth factor receptor 4 (Homo sapiens, UniProt P22455); assay: Selectivity interaction (Upstate Kinase Profiler service (Millipore)) EUB0000056c FGFR4; settings: at 1 µM
[2] = target: Tyrosine-protein kinase Fer (Homo sapiens) (UniProt P16591); assay: Selectivity interaction (Kinase panel (KiNativ target engagement assay in Jurkat cells)) EUB0001635a FER; format: cell-based; settings: Selectivity number of off-targets 0.0, Selectivity number of targets 233.0, Source Knowledge https://www.sciencedirect.com/science/article/pii/S2451945619300674?via%3Dihub, at 1 µM
Tyrosine-protein kinase Fer (Homo sapiens), sequence (P16591 whole entry, looked up): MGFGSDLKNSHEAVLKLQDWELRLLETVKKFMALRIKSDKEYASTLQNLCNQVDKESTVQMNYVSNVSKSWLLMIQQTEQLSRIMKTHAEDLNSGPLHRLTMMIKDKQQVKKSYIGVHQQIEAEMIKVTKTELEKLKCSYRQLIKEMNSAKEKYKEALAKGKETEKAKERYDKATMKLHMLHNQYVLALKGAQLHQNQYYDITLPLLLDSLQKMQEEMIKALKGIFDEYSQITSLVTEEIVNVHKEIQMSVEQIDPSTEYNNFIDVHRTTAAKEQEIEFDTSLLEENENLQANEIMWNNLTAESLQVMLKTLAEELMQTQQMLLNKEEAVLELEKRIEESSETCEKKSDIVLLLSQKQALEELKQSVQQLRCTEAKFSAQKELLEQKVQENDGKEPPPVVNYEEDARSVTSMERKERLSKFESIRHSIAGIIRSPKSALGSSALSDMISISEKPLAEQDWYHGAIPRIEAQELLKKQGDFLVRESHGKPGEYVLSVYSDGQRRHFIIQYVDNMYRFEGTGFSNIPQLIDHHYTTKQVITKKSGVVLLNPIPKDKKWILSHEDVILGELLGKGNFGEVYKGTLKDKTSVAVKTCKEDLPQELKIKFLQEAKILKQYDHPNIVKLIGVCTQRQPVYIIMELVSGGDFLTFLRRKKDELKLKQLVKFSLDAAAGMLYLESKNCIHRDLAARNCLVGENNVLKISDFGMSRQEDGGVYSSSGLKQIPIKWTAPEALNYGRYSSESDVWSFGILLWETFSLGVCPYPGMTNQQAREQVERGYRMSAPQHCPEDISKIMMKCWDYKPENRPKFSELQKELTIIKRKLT

[3] = target: Serine/threonine-protein kinase PAK 3 (Homo sapiens) (UniProt O75914); assay: Selectivity interaction (ProQinase) EUB0000171b PAK3
Serine/threonine-protein kinase PAK 3 (Homo sapiens), sequence (O75914 whole entry, looked up): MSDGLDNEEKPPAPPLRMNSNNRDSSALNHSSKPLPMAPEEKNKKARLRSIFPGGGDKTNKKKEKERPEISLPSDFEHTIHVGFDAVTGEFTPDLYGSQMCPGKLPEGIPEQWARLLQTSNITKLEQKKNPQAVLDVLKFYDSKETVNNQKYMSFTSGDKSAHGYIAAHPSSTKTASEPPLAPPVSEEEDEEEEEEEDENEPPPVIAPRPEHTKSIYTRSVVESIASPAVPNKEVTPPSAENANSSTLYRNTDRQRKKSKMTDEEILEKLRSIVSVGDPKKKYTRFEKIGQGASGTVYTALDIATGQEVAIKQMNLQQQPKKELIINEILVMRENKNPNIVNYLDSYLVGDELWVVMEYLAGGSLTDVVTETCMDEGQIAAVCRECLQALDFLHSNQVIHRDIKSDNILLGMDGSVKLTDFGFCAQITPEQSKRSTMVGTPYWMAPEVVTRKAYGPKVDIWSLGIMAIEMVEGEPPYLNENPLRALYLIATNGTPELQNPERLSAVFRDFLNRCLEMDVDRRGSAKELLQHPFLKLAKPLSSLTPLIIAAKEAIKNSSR

[4] = target: T1, Cyclin-dependent kinase-like 5 (Homo sapiens) (UniProt O76039); assay: Selectivity interaction (KinomeScan (DiscoverX)) EUB0001049a CDKL5; settings: at 1 µM
T1 sequence (whole entry): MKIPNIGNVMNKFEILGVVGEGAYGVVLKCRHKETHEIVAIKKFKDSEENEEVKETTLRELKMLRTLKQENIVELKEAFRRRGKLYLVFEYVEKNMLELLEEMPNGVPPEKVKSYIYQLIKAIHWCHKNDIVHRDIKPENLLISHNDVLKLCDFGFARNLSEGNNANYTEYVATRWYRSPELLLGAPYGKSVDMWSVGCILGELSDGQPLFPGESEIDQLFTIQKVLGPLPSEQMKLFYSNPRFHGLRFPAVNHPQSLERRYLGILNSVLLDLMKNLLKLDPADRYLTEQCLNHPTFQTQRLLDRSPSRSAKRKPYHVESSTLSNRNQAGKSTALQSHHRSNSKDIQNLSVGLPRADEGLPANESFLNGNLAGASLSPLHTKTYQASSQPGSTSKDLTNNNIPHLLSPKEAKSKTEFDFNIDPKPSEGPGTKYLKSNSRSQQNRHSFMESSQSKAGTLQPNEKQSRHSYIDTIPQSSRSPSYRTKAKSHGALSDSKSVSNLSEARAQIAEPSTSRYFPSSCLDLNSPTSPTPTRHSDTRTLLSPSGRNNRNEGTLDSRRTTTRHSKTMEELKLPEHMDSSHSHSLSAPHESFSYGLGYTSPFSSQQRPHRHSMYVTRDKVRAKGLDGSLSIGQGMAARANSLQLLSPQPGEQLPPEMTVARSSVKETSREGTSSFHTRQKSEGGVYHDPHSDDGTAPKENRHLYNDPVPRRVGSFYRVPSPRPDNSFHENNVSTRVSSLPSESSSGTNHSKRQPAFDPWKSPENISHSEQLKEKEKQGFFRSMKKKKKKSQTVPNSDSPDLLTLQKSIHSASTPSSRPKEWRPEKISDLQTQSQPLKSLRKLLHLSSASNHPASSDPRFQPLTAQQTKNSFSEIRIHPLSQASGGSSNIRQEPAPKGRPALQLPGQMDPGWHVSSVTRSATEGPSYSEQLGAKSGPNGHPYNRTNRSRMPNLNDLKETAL

[5] = target: T2, Ephrin type-B receptor 1 (Homo sapiens) (UniProt P54762); assay: Selectivity interaction (Kinase panel (Z-LYTE Assay)) EUB0001632a EPHB1; settings: at 10 µM
T2 sequence (whole entry): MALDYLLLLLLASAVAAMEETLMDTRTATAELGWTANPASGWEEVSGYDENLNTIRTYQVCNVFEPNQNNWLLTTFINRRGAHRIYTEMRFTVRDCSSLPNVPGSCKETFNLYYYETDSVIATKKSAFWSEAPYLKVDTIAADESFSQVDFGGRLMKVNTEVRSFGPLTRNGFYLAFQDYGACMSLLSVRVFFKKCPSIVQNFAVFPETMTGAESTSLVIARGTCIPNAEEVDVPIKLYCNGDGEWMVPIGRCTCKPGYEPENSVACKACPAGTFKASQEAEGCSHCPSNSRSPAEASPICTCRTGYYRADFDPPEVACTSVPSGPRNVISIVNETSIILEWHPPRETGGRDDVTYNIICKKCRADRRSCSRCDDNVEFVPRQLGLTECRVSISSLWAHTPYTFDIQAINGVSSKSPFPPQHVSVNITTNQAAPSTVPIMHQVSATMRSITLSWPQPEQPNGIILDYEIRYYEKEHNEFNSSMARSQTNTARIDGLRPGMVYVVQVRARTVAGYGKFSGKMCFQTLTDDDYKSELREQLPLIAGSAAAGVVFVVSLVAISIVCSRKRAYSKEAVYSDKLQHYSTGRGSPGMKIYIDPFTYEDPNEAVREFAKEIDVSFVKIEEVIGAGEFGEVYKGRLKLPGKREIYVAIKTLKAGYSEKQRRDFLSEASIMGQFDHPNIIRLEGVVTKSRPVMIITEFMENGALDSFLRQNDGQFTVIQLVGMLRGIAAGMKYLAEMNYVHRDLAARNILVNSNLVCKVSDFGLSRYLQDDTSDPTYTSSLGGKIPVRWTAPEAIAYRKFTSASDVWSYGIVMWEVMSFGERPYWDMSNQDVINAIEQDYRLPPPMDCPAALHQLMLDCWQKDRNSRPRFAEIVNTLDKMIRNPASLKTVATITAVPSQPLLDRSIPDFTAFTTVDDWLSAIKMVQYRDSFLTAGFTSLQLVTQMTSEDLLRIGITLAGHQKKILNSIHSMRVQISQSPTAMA

Fibroblast growth factor receptor 4, sequence (P22455 22-802 limits assumed): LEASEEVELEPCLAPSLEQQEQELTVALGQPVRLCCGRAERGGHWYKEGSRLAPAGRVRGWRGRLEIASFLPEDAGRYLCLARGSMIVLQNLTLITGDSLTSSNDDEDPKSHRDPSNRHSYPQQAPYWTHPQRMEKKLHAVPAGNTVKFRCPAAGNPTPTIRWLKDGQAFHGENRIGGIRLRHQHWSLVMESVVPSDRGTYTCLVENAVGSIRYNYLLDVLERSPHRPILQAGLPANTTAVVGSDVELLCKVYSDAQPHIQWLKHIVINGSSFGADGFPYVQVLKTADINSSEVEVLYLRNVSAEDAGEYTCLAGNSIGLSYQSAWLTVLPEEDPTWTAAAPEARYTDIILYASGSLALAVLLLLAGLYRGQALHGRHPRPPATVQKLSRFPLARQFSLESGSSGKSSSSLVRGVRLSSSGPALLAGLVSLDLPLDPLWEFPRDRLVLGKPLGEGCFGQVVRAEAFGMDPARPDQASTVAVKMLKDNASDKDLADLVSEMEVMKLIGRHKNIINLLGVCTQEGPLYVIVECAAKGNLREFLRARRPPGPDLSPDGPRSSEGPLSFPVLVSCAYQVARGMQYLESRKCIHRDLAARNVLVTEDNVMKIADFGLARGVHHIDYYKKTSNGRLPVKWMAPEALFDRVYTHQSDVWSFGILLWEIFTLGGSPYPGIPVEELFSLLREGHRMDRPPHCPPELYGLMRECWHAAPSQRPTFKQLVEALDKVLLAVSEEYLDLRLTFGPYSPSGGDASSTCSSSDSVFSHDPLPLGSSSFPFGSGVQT

Structure (SMILES): C=CC(=O)Nc1ccc(C(=O)Nc2[nH]nc3c2CN(C(=O)N[C@H](CN(C)C)c2ccccc2)C3(C)C)cc1
% of engagement [2]: -6.9%

Structure (SMILES): COc1cc(Nc2nc(C)cc(-c3cnn4nc(OC)ccc34)n2)cc(C(F)(F)F)c1
% of control [4]: 82%

The remaining lines, values ahead:

% of inhibition [1]: 8%
Structure (SMILES): Cc1ccc(-c2ccc3c(ccc4sc5c(c43)NC[C@@H](C)NC5=O)n2)cn1

% of control ([3]; at 1 µM): 98%
% of control ([3]; at 5 µM): 83%
Structure (SMILES): C=CC(=O)Nc1cccc(C(=O)Nc2ccc(Nc3cc(-c4[nH]c(SC)nc4C)ccn3)cc2)c1

% of control [5]: -4.1%
Structure (SMILES): Cn1cc(-n2cnc3c(NCc4nc5cc(Cl)c(Cl)cc5[nH]4)nc(N4CCOCC4)nc32)cn1
